target: T1, mutant CFTR (Homo sapiens, UniProt P13569, DEL508-508); assay: Fluorescence (HS-YFP) assay for CFTR activity, corrector assay; assay type: cell-based; details: CFBE41o- and FRT cells with stable expression of mutant CFTR, read-out: activity (EC50)
T1 construct: expressed in transfected cells
T1 sequence (P13569 with tags, fused parts or gaps DEL508-508): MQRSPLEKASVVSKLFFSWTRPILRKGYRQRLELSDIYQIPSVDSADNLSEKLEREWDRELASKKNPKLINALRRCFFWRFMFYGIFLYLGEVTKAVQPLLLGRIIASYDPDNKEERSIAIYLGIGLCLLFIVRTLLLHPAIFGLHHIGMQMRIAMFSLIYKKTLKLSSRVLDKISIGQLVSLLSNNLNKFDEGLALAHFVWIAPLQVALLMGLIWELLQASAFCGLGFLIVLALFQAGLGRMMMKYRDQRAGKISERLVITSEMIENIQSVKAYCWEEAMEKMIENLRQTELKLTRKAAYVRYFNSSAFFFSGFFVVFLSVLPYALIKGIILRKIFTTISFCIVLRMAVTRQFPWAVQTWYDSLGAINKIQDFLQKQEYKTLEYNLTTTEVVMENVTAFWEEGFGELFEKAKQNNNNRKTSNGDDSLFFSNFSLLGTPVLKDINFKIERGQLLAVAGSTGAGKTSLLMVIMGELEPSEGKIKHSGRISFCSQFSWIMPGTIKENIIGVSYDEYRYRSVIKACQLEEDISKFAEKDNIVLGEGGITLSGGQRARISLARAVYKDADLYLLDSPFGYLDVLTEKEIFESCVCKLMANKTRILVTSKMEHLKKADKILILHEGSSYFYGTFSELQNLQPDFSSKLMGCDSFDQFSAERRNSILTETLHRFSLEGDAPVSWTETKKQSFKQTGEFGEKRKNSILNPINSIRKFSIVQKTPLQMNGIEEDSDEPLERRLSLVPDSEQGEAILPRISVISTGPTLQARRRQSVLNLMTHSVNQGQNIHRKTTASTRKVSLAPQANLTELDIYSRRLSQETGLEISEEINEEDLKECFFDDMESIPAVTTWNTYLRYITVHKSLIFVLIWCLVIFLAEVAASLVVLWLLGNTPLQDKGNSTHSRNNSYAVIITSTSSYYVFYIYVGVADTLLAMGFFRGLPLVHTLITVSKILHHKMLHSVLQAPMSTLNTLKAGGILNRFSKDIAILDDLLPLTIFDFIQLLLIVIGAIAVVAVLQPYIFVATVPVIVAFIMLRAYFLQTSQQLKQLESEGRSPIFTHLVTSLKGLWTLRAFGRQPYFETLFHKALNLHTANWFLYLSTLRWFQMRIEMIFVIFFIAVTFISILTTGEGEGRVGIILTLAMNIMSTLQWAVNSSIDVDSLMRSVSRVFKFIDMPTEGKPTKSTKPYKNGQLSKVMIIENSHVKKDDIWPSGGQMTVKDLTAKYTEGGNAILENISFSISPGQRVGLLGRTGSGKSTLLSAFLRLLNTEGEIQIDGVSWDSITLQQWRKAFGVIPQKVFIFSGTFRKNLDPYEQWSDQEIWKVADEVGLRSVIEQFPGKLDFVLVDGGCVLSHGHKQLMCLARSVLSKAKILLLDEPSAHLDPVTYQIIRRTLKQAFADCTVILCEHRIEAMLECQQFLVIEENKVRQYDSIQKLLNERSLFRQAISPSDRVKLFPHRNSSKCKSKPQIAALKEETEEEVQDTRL

SMILES	EC50 [nM]
CN(C(=O)c1cccc(-n2nc(C(F)(F)F)c3c2C[C@H]2CC[C@@H]3N2C(=O)C(C)(C)C)c1)c1ccc2c(c1)OCO2 (single isomer, unassigned) [Compound 087, (4R,7S)- or (4S,7R)—N-(Benzo[d][1,3]dioxol-5-yl)-N-methyl-3-[(9-pivaloyl-3-(trifluoromethyl)-5,6,7,8-tetrahydro-4,7-epiminocyclohepta[c]pyrazol-1(4H)-yl)]benzamide]	< 1000
CN(C(=O)c1cccc(-n2nc(C(F)(F)F)c3c2C[C@@H]2CC[C@H]3N2C(=O)C(C)(C)C)c1)c1ccc2c(c1)OCO2 (single isomer, unassigned) [Compound 088, (4R,7S)- or (4S,7R)—N-(Benzo[d][1,3]dioxol-5-yl)-N-methyl-3-[(9-pivaloyl-3-(trifluoromethyl)-5,6,7,8-tetrahydro-4,7-epiminocyclohepta[c]pyrazol-1(4H)-yl)]benzamide]	< 1000
Cc1noc(C)c1S(=O)(=O)N1[C@@H]2CC[C@H]1c1c(C(F)(F)F)nn(-c3cccc(C(=O)N(C)c4ccc5c(c4)OCO5)c3)c1C2 (single isomer, unassigned) [Compound 128, (4S,7R)- or (4R,7S)—N-(Benzo[d][1,3]dioxol-5-yl)-3-(9-((3,5-dimethylisoxazol-4-yl)sulfonyl)-3-(trifluoromethyl)-5,6,7,8-tetrahydro-4,7-epiminocyclohepta[c]pyrazol-1(4H)-yl)-N-methylbenzamide]	< 1000
Cc1noc(C)c1S(=O)(=O)N1[C@H]2CC[C@@H]1c1c(C(F)(F)F)nn(-c3cccc(C(=O)N(C)c4ccc5c(c4)OCO5)c3)c1C2 (single isomer, unassigned) [Compound 129, (4R,7S)- or (4S,7R)—N-(Benzo[d][1,3]dioxol-5-yl)-3-(9-((3,5-dimethylisoxazol-4-yl)sulfonyl)-3-(trifluoromethyl)-5,6,7,8-tetrahydro-4,7-epiminocyclohepta[c]pyrazol-1(4H)-yl)-N-methylbenzamide]	< 1000
Cc1n[nH]c(C)c1S(=O)(=O)N1[C@H]2CC[C@@H]1c1c(C(F)(F)F)nn(-c3cccc(C(=O)N(C)c4ccc5c(c4)OCO5)c3)c1C2 (single isomer, unassigned) [Compound 130, (4R,7S)- or (4S,7R)—N-(Benzo[d][1,3]dioxol-5-yl)-3-(9-((3,5-dimethyl-1H-pyrazol-4-yl)sulfonyl)-3-(trifluoromethyl)-5,6,7,8-tetrahydro-4,7-epiminocyclohepta[c]pyrazol-1(4H)-yl)-N-methylbenzamide]	< 1000
CN(C(=O)c1cccc(-n2nc(C(F)(F)F)c3c2C[C@@H]2CC[C@H]3N2C2CCC2)c1)c1ccc2c(c1)OCO2 (single isomer, unassigned) [Compound 131, (4R,7S)- or (4S,7R)—N-(Benzo[d][1,3]dioxol-5-yl)-3-(9-cyclobutyl-3-(trifluoromethyl)-5,6,7,8-tetrahydro-4,7-epiminocyclohepta[c]pyrazol-1(4H)-yl)-N-methylbenzamide]	< 1000
CN(C(=O)c1cccc(-n2nc(C(F)(F)F)c3c2C(Oc2ccc(C(=O)O)cc2)CCC3)c1)c1ccc2c(c1)OC(F)(F)O2 (single isomer, unassigned) [Compound 150, (R) or (S)-4-[[1-[3-[(2,2-Difluoro-1,3-benzodioxol-5-yl)-methyl-carbamoyl]phenyl]-3-(trifluoromethyl)-4,5,6,7-tetrahydroindazol-7-yl]oxy]benzoic acid]	< 1000
CN(C(=O)c1cccc(-n2nc(C(F)(F)F)c3c2C(Oc2ccc(C(=O)O)cc2)CCC3)c1)c1ccc2c(c1)OC(F)(F)O2 (single isomer, unassigned) [Compound 151, (S) or (R)-4-[[1-[3-[(2,2-Difluoro-1,3-benzodioxol-5-yl)-methyl-carbamoyl]phenyl]-3-(trifluoromethyl)-4,5,6,7-tetrahydroindazol-7-yl]oxy]benzoic acid]	< 1000
CN(C(=O)c1cccc(-n2nc(C(F)(F)F)c3c2C(Oc2ccc(C(=O)O)nc2)CCC3)c1)c1ccc2c(c1)OC(F)(F)O2 (single isomer, unassigned) [Compound 185, (S) or (R)-5-[[-1-[3-[(2,2-Difluoro-1,3-benzodioxol-5-yl)-methyl-carbamoyl]phenyl]-3-(trifluoromethyl)-4,5,6,7-tetrahydroindazol-7-yl]oxy]pyridine-2-carboxylic acid]	< 1000
CN(C(=O)c1cccc(-n2nc(C(F)(F)F)c3c2C(Oc2ccc(C(=O)O)nc2)CCC3)c1)c1ccc2c(c1)OC(F)(F)O2 (single isomer, unassigned) [Compound 186, (R) or (S)-5-[[1-[3-[(2,2-Difluoro-1,3-benzodioxol-5-yl)-methyl-carbamoyl]phenyl]-3-(trifluoromethyl)-4,5,6,7-tetrahydroindazol-7-yl]oxy]pyridine-2-carboxylic acid]	< 1000
CN(C(=O)c1cccc(-n2nc(C(F)(F)F)c3c2C(Oc2cccc(C(=O)O)c2)CCC3)c1)c1ccc2c(c1)OC(F)(F)O2 (single isomer, unassigned) [Compound 188, (S) or (R)-3-[[1-[3-[(2,2-Difluoro-1,3-benzodioxol-5-yl)-methyl-carbamoyl]phenyl]-3-(trifluoromethyl)-4,5,6,7-tetrahydroindazol-7-yl]oxy]benzoic acid]	< 1000
CN(C(=O)c1cccc(-n2nc(C(F)(F)F)c3c2C(Oc2cccc(C(=O)O)c2)CCC3)c1)c1ccc2c(c1)OC(F)(F)O2 (single isomer, unassigned) [Compound 190, (R) or (S)-3-[[1-[3-[(2,2-Difluoro-1,3-benzodioxol-5-yl)-methyl-carbamoyl]phenyl]-3-(trifluoromethyl)-4,5,6,7-tetrahydroindazol-7-yl]oxy]benzoic acid]	< 1000
CN(C(=O)c1cccc(-n2nc(C(F)(F)F)c3c2C(Oc2ccc(C(=O)O)cn2)CCC3)c1)c1ccc2c(c1)OC(F)(F)O2 (single isomer, unassigned) [Compound 192, (S) or (R)-6-[[1-[3-[(2,2-Difluoro-1,3-benzodioxol-5-yl)-methyl-carbamoyl]phenyl]-3-(trifluoromethyl)-4,5,6,7-tetrahydroindazol-7-yl]oxy]pyridine-3-carboxylic acid]	< 1000
CN(C(=O)c1cccc(-n2nc(C(F)(F)F)c3c2C(Oc2ccc(C(=O)O)cn2)CCC3)c1)c1ccc2c(c1)OC(F)(F)O2 (single isomer, unassigned) [Compound 194, (R) or (S)-6-[[1-[3-[(2,2-Difluoro-1,3-benzodioxol-5-yl)-methyl-carbamoyl]phenyl]-3-(trifluoromethyl)-4,5,6,7-tetrahydroindazol-7-yl]oxy]pyridine-3-carboxylic acid]	< 1000
CN(C(=O)c1cccc(-n2nc(C(F)(F)F)c3c2C(Oc2cc(C(=O)O)ccn2)CCC3)c1)c1ccc2c(c1)OC(F)(F)O2 (single isomer, unassigned) [Compound 196, (S) or (R)-2-[[1-[3-[(2,2-Difluoro-1,3-benzodioxol-5-yl)-methyl-carbamoyl]phenyl]-3-(trifluoromethyl)-4,5,6,7-tetrahydroindazol-7-yl]oxy]pyridine-4-carboxylic acid]	< 1000

Reference: patent US10968225B2, “Compounds and compositions for the treatment of cystic fibrosis” (Fondazione Istituto Italiano Di Tecnologia, priority 2017, dated 2021)
